The values below come from patent US10329289B2, “6,7-dihydro-5H-pyrrolo[3,4-B]pyridin-5-one allosteric modulators of the M4 muscarinic acetylcholine receptor” (Merck Sharp & Dohme Corp., priority 2015, dated 2019).

The target of this test is T1, human M4 muscarinic acetylcholine receptor (Homo sapiens, UniProt P08173).
T1 construct: expressed in transfected cells; host or cells: CHO-K1
T1 sequence (P08173 1-479): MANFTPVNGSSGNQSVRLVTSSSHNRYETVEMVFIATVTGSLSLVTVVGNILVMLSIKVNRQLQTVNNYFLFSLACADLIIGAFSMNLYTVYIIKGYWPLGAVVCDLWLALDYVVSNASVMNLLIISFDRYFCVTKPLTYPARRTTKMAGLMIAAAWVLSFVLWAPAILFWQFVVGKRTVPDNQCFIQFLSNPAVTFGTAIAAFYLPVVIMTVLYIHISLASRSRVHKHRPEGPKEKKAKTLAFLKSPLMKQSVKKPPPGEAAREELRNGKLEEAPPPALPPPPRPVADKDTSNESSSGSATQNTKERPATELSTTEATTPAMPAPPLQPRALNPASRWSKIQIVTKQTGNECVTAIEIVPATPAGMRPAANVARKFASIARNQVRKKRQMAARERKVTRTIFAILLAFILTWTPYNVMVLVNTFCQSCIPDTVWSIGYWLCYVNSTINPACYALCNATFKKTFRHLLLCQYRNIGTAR
In words: human FLIPR-based M4 PAM assay (Ca2+ mobilization, CHO-K1 cells with human M4 receptor and Gαqi5). To be noted: acetylcholine at 20% of maximum response, read-out: M4 PAM IP. It is filed as cell-based. A digest of the protocol:
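CHO-K1 cells stably expressing human M4 and chimeric Gαqi5 were dye-loaded ~1 h at 37 °C and read for Ca2+ fluorescence. Compound followed by acetylcholine at an EC20 (sometimes an EC70 third addition); inflection point from a 4-parameter logistic fit.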
(In general: Calcium assays in cells follow changes in intracellular calcium, usually with a dye or a luminescent sensor.)
As for `Cc1c(N2CC[C@@H](Oc3ccc4c(c3)COC4)[C@@H](F)C2)nc2c(c1C)C(=O)NC2` [Example 225, 2-((3S,4R)-4-((1,3-dihydro-2-benzofuran-5-yl)oxy)-3-fluoropiperidin-1-yl)-3,4-dimethyl-6,7-dihydro-5H-pyrrolo[3,4-b]pyridin-5-one], the EC50 is 19 nM.
Regarding `CCc1cc2c(nc1N1CCC(OCC3CC3)CC1)CNC2=O` [Example 176A, 2-(4-(cyclopropylmethoxy)piperidin-1-yl)-3-ethyl-6,7-dihydro-5H-pyrrolo[3,4-b]pyridin-5-one], the EC50 was determined as 264 nM.
With `Cc1cc2c(nc1N1CCC(OCCC3(C)CC3)CC1)CNC2=O` [Example 65A, 3-methyl-2-(4-(2-(1-methylcyclopropyl)ethoxy)piperidin-1-yl)-6,7-dihydro-5H-pyrrolo[3,4-b]pyridin-5-one] the figure was 164 nM; with `Cc1cc2c(nc1N1CCC(Oc3cccc(C#N)c3)CC1)[C@H](C)N(C)C2=O` [Example 28B, (S)-3-((1-(3,6,7-trimethyl-5-oxo-6,7-dihydro-5H-pyrrolo[3,4-b]pyridin-2-yl)piperidin-4-yl)oxy)benzonitrile], 1980 nM; with `Cc1cc2c(nc1N1CCC(Oc3ccc4c(c3)COC4)CC1)CN(CCO)C2=O` [Example 263, 2-(4-((1,3-dihydro-2-benzofuran-5-yl)oxy)piperidin-1-yl)-6-(2-hydroxyethyl)-3-methyl-6,7-dihydro-5H-pyrrolo[3,4-b]pyridin-5-one], 57 nM.
In the case of `COc1ccc(OC2CCN(c3nc4c(c(C)c3C)C(=O)N(C)[C@@H]4CO)CC2)cn1` [Example 343A, (S)-7-(hydroxymethyl)-2-(4-((6-methoxypyridin-3-yl)oxy)piperidin-1-yl)-3,4,6-trimethyl-6,7-dihydro-5H-pyrrolo[3,4-b]pyridin-5-one] it was 27 nM.
For the compound `Cc1cc2c(nc1N1CCC(Oc3ccc4c(c3)CC(=O)C4)CC1)CNC2=O` [Example 373, 3-Methyl-2-(4-((2-oxo-2,3-dihydro-1H-inden-5-yl)oxy)piperidin-1-yl)-6,7-dihydro-5H-pyrrolo[3,4-b]pyridin-5-one], the EC50 is 69 nM.
With `Cc1cc2c(nc1N1CCC(Oc3cncc(C#N)c3)CC1)CNC2=O` [Example 50, 5-((1-(3-methyl-5-oxo-6,7-dihydro-5H-pyrrolo[3,4-b]pyridin-2-yl)piperidin-4-yl)oxy)nicotinonitrile], the EC50 worked out at 657 nM.
Consider `Cc1cc2c(nc1N1CCC(Oc3ccc(OC(F)(F)F)nc3)CC1)CNC2=O` [Example 124, 3-methyl-2-(4-((6-(trifluoromethoxy)pyri-din-3-yl)oxy)piperidin-1-yl)-6,7-dihydro-5H-pyrrolo[3,4-b]pyridin-5-one], for which the EC50 came out at 362 nM.
With `CO[C@H]1Cc2ccc(OC3CCN(c4nc5c(c(C)c4C)C(=O)NC5)CC3)cc2C1` [Example 335B, (5)-2-(4-((2-methoxy-2,3-dihydro-1H-inden-5-yl)oxy)piperidin-1-yl)-3,4-dimethyl-6,7-dihydro-5H-pyrrolo[3,4-b]pyridin-5-one] the figure was 259 nM; with `CCc1cc2c(nc1N1CC[C@@H](Oc3cnc4c(c3)COC4)[C@@H](F)C1)CNC2=O` [Example 164A, 2-((3S,4R)-4-((5,7-dihydrofuro[3,4-b]pyridin-3-yl)oxy)-3-fluoropiperidin-1-yl)-3-ethyl-6,7-dihydro-5H-pyrrolo[3,4-b]pyridin-5-one], 202 nM; with `Cc1cc2c(nc1N1CCC(Oc3ccc4c(c3)C(=O)N(C)CC4)CC1)CNC2=O` [Example 138, 2-methyl-7-((1-(3-methyl-5-oxo-6,7-dihydro-5H-pyrrolo[3,4-b]pyridin-2-yl)piperidin-4-yl)oxy)-3,4-dihydroisoquinolin-1(2H)-one], 390 nM.
`COc1ccc(OC2CCN(c3nc4c(cc3C)C(=O)N(C(C)C)C4)CC2)cn1` [Example 245, 6-isopropyl-2-(4-((6-methoxypyridin-3-yl)oxy)piperidin-1-yl)-3-methyl-6,7-dihydro-5H-pyrrolo[3,4-b]pyridin-5-one]: the EC50 worked out at 75 nM.
In the case of `Cc1c(N2CCC(OCC3(C)CC3(F)F)CC2)nc2c(c1C)C(=O)N(CCO)C2` (stereo not shown) [Example 259A, 2-(4-((2,2-difluoro-1-methylcyclopropyl)methoxy)piperidin-1-yl)-6-(2-hydroxyethyl)-3,4-dimethyl-6,7-dihydro-5H-pyrrolo[3,4-b]pyridin-5-one] it was 117 nM; in that of `COc1ccc(OC2[C@@H]3C[C@H]2CN(c2nc4c(cc2C)C(=O)NC4)C3)cn1` (single isomer, unassigned) [Example 185B], 2530 nM; in that of `Cc1cncc(OC2CCN(c3nc4c(c(C)c3C)C(=O)NC4)CC2)c1` [Example 220A, 3,4-dimethyl-2-(4-((5-methylpyridin-3-yl)oxy)piperidin-1-yl)-6,7-dihydro-5H-pyrrolo[3,4-b]pyridin-5-one], 83 nM.
As for `COc1ccc(OC2CCN(c3nc4c(cc3C)C(=O)N(C(=O)OC(C)(C)C)C4)CC2)cn1` [Example 299, tert-Butyl 2-(4-((6-methoxypyridin-3-yl)oxy)piperidin-1-yl)-3-methyl-5-oxo-5,7-dihydro-6H-pyrrolo[3,4-b]pyridine-6-carboxylate], the EC50 came to 265 nM.
On to `Cc1cc2c(nc1N1CCC(Oc3ccnc(OC(F)(F)F)c3)CC1)CNC2=O` [Example 102, 3-methyl-2-(4-((2-(trifluoromethoxy)pyri-din-4-yl)oxy)piperidin-1-yl)-6,7-dihydro-5H-pyrrolo[3,4-b]pyridin-5-one], for which the EC50 came to 690 nM.
In the case of `CCc1cc2c(nc1N1CCC(Oc3ccc4c(c3)COC4)CC1)[C@@H](CO)N(C)C2=O` [Example 351, (S)-2-(4-((1,3-dihydro-2-benzofuran-5-yl)oxy)piperidin-1-yl)-3-ethyl-7-(hydroxymethyl)-6-methyl-6,7-dihydro-5H-pyrrolo[3,4-b]pyridin-5-one], the EC50 is 40 nM.
With `Cc1cc2c(nc1N1CCC(Oc3ccc(F)cc3)CC1)CN(C)C2=O` [Example 253, 2-(4-(4-fluorophenoxy)piperidin-1-yl)-3,6-dimethyl-6,7-dihydro-5H-pyrrolo[3,4-b]pyridin-5-one] the figure was 49 nM; with `CCc1cc2c(nc1N1CC[C@H](OCC3(C)CC3)[C@@H](F)C1)CNC2=O` [Example 6A, 3-ethyl-2-((3S,4S)-3-fluoro-4-((1-methylcyclopropyl)methoxy)piperidin-1-yl)-6,7-dihydro-5H-pyrrolo[3,4-b]pyridin-5-one], 150 nM; with `Cc1cc2c(nc1N1CCC(OCC3(O)CC3)CC1)CNC2=O` [Example 312B, 2-(4-((1-hydroxycyclopropyl)methoxy)piperidin-1-yl)-3-methyl-6,7-dihydro-5H-pyrrolo[3,4-b]pyridin-5-one], 1120 nM.
Take `Cc1cc2c(nc1N1CCC(OCC3CC3(C)C)CC1)CNC2=O` (stereo not shown) [Example 311, 2-(4-((2,2-Dimethylcyclopropyl)methoxy)piperidin-1-yl)-3-methyl-6,7-dihydro-5H-pyrrolo[3,4-b]pyridin-5-one]: the EC50 was found to be 686 nM.
Take `Cc1cc2c(nc1N1CCC(Oc3ccc4c(c3)OCCN4)CC1)CNC2=O` [Example 148, 2-(4-((3,4-dihydro-2H-benzo[b][1,4]oxazin-7-yl)oxy)piperidin-1-yl)-3-methyl-6,7-dihydro-5H-pyrrolo[3,4-b]pyridin-5-one]: the EC50 is 31 nM.
`Cc1cc2c(nc1N1CCC(OCC3(C)CC3)CC1)[C@H](CO)N(C)C2=O` [Example 340, (R)-7-(hydroxymethyl)-3,6-dimethyl-2-(4-((1-methylcyclopropyl)methoxy)piperidin-1-yl)-6,7-dihydro-5H-pyrrolo[3,4-b]pyridin-5-one]: the EC50 is 2980 nM.
With `Cc1cc2c(nc1N1CCC(Oc3ccc4c(c3)CO[C@@H]4C)CC1)CNC2=O` [Example 199A, (R)-3-methyl-2-(4-((1-methyl-1,3-dihydro-2-benzofuran-5-yl)oxy)piperidin-1-yl)-6,7-dihydro-5H-pyrrolo[3,4-b]pyridin-5-one], the EC50 was 60 nM.
`Cc1cc2c(nc1N1CCC(Oc3cnc4c(c3)CC[C@H]4O)CC1)CNC2=O` (single isomer, unassigned) [Example 324D]: the EC50 is 682 nM.
On to `CCc1cc2c(nc1N1CC[C@@H](Oc3ccc4c(c3)COC4)[C@@H](F)C1)CNC2=O` [Example 214, 2-((3S,4R)-4-((1,3-dihydro-2-benzofuran-5-yl)oxy)-3-fluoropiperidin-1-yl)-3-ethyl-6,7-dihydro-5H-pyrrolo[3,4-b]pyridin-5-one], for which the EC50 came to 93 nM.
As to `Cc1cc2c(nc1N1CCC(Oc3ccc4c(cnn4C)c3)CC1)[C@@H](CO)N(C)C2=O` [Example 359, (S)-7-(hydroxymethyl)-3,6-dimethyl-2-(4-((1-methyl-1H-indazol-5-yl)oxy)piperidin-1-yl)-6,7-dihydro-5H-pyrrolo[3,4-b]pyridin-5-one], the EC50 was 37 nM.
With `Cc1cc2c(nc1N1CCC(OC[C@]3(C)C[C@H]3F)CC1)CNC2=O` (single isomer, unassigned) [Example 160C] the figure was 58 nM.
`Cc1cc2c(nc1N1CC[C@H](Oc3cccc(C#N)c3)[C@H](F)C1)CNC2=O` [Example 19, 3-(((3R,4S)-3-fluoro-1-(3-methyl-5-oxo-6,7-dihydro-5H-pyrrolo[3,4-b]pyridin-2-yl)piperidin-4-yl)oxy)benzonitrile]: the EC50 amounted to 57 nM.
